Data from patent US10266544B2, “Aryl substituted aminomethyl spectinomycin analogs as antibacterial agents” (ST. JUDE CHILDREN'S RESEARCH HOSPITAL, INC., priority 2013, dated 2019).
Counter-ions that a name gives are not always drawn. Like-named read-outs stand apart in the source and are kept apart here.

How the values were obtained:
Assay type in all cases: cell-based
[1] = test system: Neisseria meningitides (ATCC 13077); test: Disc diffusion assay; conditions: ATCC13077, 4 μg per disc, read-out: Zone of inhibition N.m.
[2] = test system: Legionella pneumophila (ATCC 33153); test: microbe, parasite or virus in culture; conditions: ATCC33153, 72 h, read-out: Zone of inhibition L.p.
[3] = test system: Bacillus anthracis; test: microbe, parasite or virus in culture; conditions: read-out: MIC B.a.
[4] = test system: Streptococcus pneumoniae (R6); test: MIC determination, microbroth dilution; conditions: Streptococcus pneumoniae (R6); read-out: MIC S. pn.
[5] = test system: Pseudomonas aeruginosa (PA01); test: MIC determination, microbroth dilution
[6] = test system: MRSA, Staphylococcus aureus (NRS70); test: MIC determination, microbroth dilution; conditions: read-out: MIC MRSA
[7] = test system: acinetobacter baumannii (ATCC 19606); test: MIC determination, microbroth dilution; conditions: ATCC19606
[8] = test system: Escherichia coli (ATCC 700926); test: MIC determination, microbroth dilution; conditions: ATCC700926; Escherichia coli (ATCC 700926); read-out: MIC E.c.
[9] = test system: Neisseria gonorrhoeae (ATCC 49226); test: Disc diffusion assay; conditions: ATCC49226, 4 μg per disc, read-out: Zone of inhibition N.g.
[10] = test system: E. coli K12 ΔtolC; test: microbe, parasite or virus in culture; conditions: Escherichia coli, read-out: MIC E.c. Δtolc
[11] = test system: Klebsiella pneumoniae (ATCC 33495); test: MIC determination, microbroth dilution; conditions: ATCC33495
[12] = test system: Bacillus subtilis (ATCC 23857); test: MIC determination, microbroth dilution; conditions: ATCC23857; Bacillus subtilis (ATCC 23857); read-out: MIC B.s.
[13] = test system: Moraxella catarrhalis; test: MIC determination (Table 6)
[14] = test system: Listeria monocytogenes; test: MIC determination (Table 6)
[15] = test system: Enterococcus faecalis (ATCC 33186); test: MIC determination, microbroth dilution
[16] = test system: Bacillus anthracis, Sterne 34F2; test: microbe, parasite or virus in culture; conditions: STERNE34F2, read-out: MIC B.a.
[17] = test system: M. tuberculosis clinical isolates; test: microbe, parasite or virus in culture; conditions: Mycobacterium tuberculosis, H37RV, read-out: MIC H37Rv
[18] = test system: Burkholderia cepacia (ATCC 25416); test: MIC determination, microbroth dilution; conditions: Burkholderia cepacia
[19] = test system: Proteus mirabilis (ATCC 25933); test: MIC determination, microbroth dilution; conditions: ATCC25933
[20] = test system: Staphylococcus aureus (ATCC 29213); test: MIC determination, microbroth dilution
[21] = test system: Haemophilus influenza (ATCC 49247); test: microbe, parasite or virus in culture; conditions: ATCC49247; Haemophilus influenza; 4 μg per disc; range of at least two experiments; read-out: Zone of inhibition H.i.
[22] = test system: Stenotrophomonas maltophilia (ATCC 13637); test: MIC determination, microbroth dilution; conditions: ATCC13637; Stenotrophomonas maltophilia (ATCC 13637); read-out: MIC S.m.
[23] = test system: Proteus vulgaris (ATCC 33420); test: MIC determination, microbroth dilution; conditions: ATCC33420
[24] = test system: Streptococcus pyogenes (ATCC 700294); test: MIC determination, microbroth dilution; conditions: ATCC700294; Streptococcus pyogenes (ATCC 700294); read-out: MIC S. py.
[25] = test system: Neisseria gonorrhoeae (ATCC 49226); test: Agar MIC determination (Alamar Blue); conditions: ATCC49226, agar MIC, read-out: MIC N.g.
[26] = ATCC33186, Enterococcus faecalis (ATCC 33186), read-out: MIC E.f.
[27] = ATCC25416, read-out: MIC B.c., Burkholderia cepacia (ATCC 25416)
[28] = ATCC25416, read-out: MIC B.c., Burkholderia cepacia, Table 6
[29] = ATCC29213, Staphylococcus aureus (ATCC 29213), read-out: MIC S.a.

Question: What does the source list for CN[C@@H]1[C@H](O)[C@H](NC)[C@H]2O[C@]3(O)[C@H](O[C@@H]2[C@H]1O)O[C@H](C)C[C@@]3(O)CNCc1ccc(C)cc1C [compound 24, 3′-(R)-3′-[(2,4-dimethyl)benzylaminomethyl)]dihydrospectinomycin Trihydrochloride]?
Answer: zone of inhibition at 4 µg/disc [1]: 17 mm; zone of inhibition at 4 µg/disc [2]: 18 mm; MIC [3]: 50 mg/L; MIC [4]: 3.1 mg/L; MIC [5]: 50 mg/L; MIC ([6]; Staphylococcus aureus (NRS70)): 50 mg/L; MIC [7]: 200 mg/L; MIC [8]: 25 mg/L; zone of inhibition at 4 µg/disc [9]: 18 mm; MIC [10]: 12.5 to 25 mg/L; MIC [11]: 100 to 200 mg/L; MIC [12]: 12.5 mg/L; MIC [13]: 1.6 mg/L; MIC [14]: 12.5 mg/L; MIC [15, 26]: 12.5 mg/L; MIC [16]: 50 mg/L; MIC [17]: 25 mg/L; MIC [18, 27]: > 200 mg/L; MIC [18, 28]: > 200 mg/L; MIC [19]: > 200 mg/L; MIC [20, 29]: 6.3 to 12.5 mg/L; zone of inhibition at 4 µg/disc [21]: 14 mm; MIC [22]: 25 to 50 mg/L; MIC [23]: 200 mg/L; MIC [24]: 1.6 mg/L

Question: CN[C@@H]1[C@H](O)[C@H](NC)[C@H]2O[C@]3(O)[C@H](O[C@@H]2[C@H]1O)O[C@H](C)C[C@@]3(O)CNCc1ccc(C(C)C)cc1 [compound 23, 3′-(R)-3′-[(4-isopropyl)benzylaminomethyl)]dihydrospectinomycin Trihydrochloride] was tested. Which zone of inhibition at 4 µg/disc [1] did it give?
Answer: 17 mm

Question: And the zone of inhibition at 4 µg/disc [2]?
Answer: 12 mm

Question: And the MIC [3]?
Answer: 12.5 mg/L

Question: And the MIC [4]?
Answer: 1.6 to 3.1 mg/L

Question: And the MIC [5]?
Answer: 25 mg/L

Question: And the MIC ([6]; Staphylococcus aureus)?
Answer: 12.5 mg/L

Question: What about the MIC [7] of the same compound?
Answer: 50 mg/L

Question: What about the MIC [8] of the same compound?
Answer: 12.5 mg/L

Question: And the zone of inhibition at 4 µg/disc [9]?
Answer: 18 mm

Question: What about the MIC [10] of the same compound?
Answer: 3.1 to 6.3 mg/L

Question: And the MIC [11]?
Answer: 50 mg/L

Question: What about the MIC [12] of the same compound?
Answer: 6.3 mg/L

Question: And the MIC [13]?
Answer: 3.1 to 6.3 mg/L

Question: And the MIC [14]?
Answer: 6.3 mg/L

Question: What about the MIC ([15]; Enterococcus faecalis, ATCC33186, read-out: MIC E.f.) of the same compound?
Answer: 12.5 mg/L

Question: What about the MIC [16] of the same compound?
Answer: 12.5 mg/L

Question: And the MIC [17]?
Answer: 25 mg/L

Question: What about the MIC [18, 27] of the same compound?
Answer: > 200 mg/L

Question: What about the MIC [18, 28] of the same compound?
Answer: > 200 mg/L

Question: What about the MIC [19] of the same compound?
Answer: > 200 mg/L

Question: What about the MIC ([20]; Staphylococcus aureus, ATCC29213, read-out: MIC S.a.) of the same compound?
Answer: 12.5 to 25 mg/L

Question: And the zone of inhibition at 4 µg/disc [21]?
Answer: 15 mm

Question: And the MIC [22]?
Answer: 6.3 mg/L

Question: And the MIC [23]?
Answer: > 200 mg/L

Question: And the MIC [24]?
Answer: 1.6 mg/L

Question: Which zone of inhibition at 4 µg/disc [1] does the source give for CN[C@@H]1[C@H](O)[C@H](NC)[C@H]2O[C@]3(O)[C@H](O[C@@H]2[C@H]1O)O[C@H](C)C[C@@]3(O)CNCc1nc2ccccc2s1 [compound 34, 3′-(A′)-3′-(benzo[d]thiazolylmethyl)aminomethyl dihydrospectinomycin Trihydrobromide] here?
Answer: 12 mm

Question: What about the MIC [25] of the same compound?
Answer: 100 mg/L

Question: What about the MIC [4] of the same compound?
Answer: 6.3 mg/L

Question: What about the MIC [5] of the same compound?
Answer: > 200 mg/L

Question: And the MIC ([6]; Staphylococcus aureus (NRS70))?
Answer: 100 to 200 mg/L

Question: What about the MIC [7] of the same compound?
Answer: > 200 mg/L

Question: And the zone of inhibition at 4 µg/disc [9]?
Answer: 8 mm

Question: What about the MIC [11] of the same compound?
Answer: 100 to 200 mg/L

Question: What about the MIC [12] of the same compound?
Answer: 50 to 100 mg/L

Question: And the MIC [15, 26]?
Answer: 25 mg/L

Question: What about the MIC [16] of the same compound?
Answer: 50 mg/L

Question: What about the MIC [17] of the same compound?
Answer: 12.5 mg/L

Question: And the MIC [18, 27]?
Answer: > 200 mg/L

Question: What about the MIC [19] of the same compound?
Answer: > 200 mg/L

Question: And the MIC [20, 29]?
Answer: 50 to 100 mg/L

Question: What about the zone of inhibition at 4 µg/disc [21] of the same compound?
Answer: 7 mm

Question: What about the MIC [22] of the same compound?
Answer: 100 mg/L

Question: What about the MIC [23] of the same compound?
Answer: > 200 mg/L

Question: And the MIC [24]?
Answer: 3.1 mg/L
